Laboratory results reported in patent publication US20180057505A1, “BICYCLIC HETEROARYL COMPOUNDS USEFUL AS INHIBITORS OF THE PAR-2 SIGNALING PATHWAY” (VERTEX PHARMACEUTICALS INCORPORATED, priority 2015, published 2018).

What was measured:
Format in all cases: cell-based
PAR2 (HT-29 cells) [1] = molecular target: T1, PAR2 (HT-29 cells) (Homo sapiens, UniProt P55085); assay: Ca FLIPR TETRA assay, ANTAGONIST mode, activator 8 μM SLIGKV; conditions: HT-29 cells, activator 8 μM SLIGKV; maximal antagonist concentration per Method (A: 0.1, 1 or 2 μM; B: 50 μM)
T1 construct: host or cells: HT-29
T1 sequence (P55085 26-397): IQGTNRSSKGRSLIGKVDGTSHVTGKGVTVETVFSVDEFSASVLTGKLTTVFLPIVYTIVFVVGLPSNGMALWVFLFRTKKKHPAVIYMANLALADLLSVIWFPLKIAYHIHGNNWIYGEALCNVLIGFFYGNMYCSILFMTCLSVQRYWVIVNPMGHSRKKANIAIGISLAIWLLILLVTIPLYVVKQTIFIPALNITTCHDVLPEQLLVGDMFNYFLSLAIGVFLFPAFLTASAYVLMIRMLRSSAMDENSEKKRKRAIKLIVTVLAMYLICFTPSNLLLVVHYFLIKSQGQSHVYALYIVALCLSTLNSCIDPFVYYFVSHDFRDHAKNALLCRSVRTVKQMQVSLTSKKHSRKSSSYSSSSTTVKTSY
Procedure: (§1) Protocol for Testing PAR2 Compounds in ANTAGONIST Mode Using the Ca FLIPR^TETRA Assay (384 Well).
(§2) 23000 HT-29 cells (ATCC# HTB-38) were plated in 384-well black, transparent-flat bottom plates and incubated in 25 uL of 1% FBS/McCoy's media ON at 37° C. under an atmosphere of 5% CO2. The following day, 25 uL FLIPR calcium 5 Molecular Devices assay reagent (Cat: R-8186) was added. Plates were incubated at 37° C. and r. t. for 45 min and 15 min, respectively. Compounds dilutions were prepared in 100% DMSO using a Biomek FX and diluted 20-fold in HBSS and then 5.5 uL was added directly to the cells by the FLIPR^TETRA (10× dilution) using FLIPR Tetra Pipette tips, black, non-sterile, 384 Molecular Devices (Cat: 9000-0764).
(§3) A first read was performed to determine whether the test compounds on their own can activate Ca^2+ responses. The cells were incubated with the compounds for 30 min at r. t. and then read in ANTAGONIST mode in the same plate by stimulating with 6.2 uL of a fixed concentration of the activator: final concentrations 8 μM SLIGKV, 1 U/mL Thrombin, 3.1 U/mL trypsin, or 0.6 μM UTP.

PAR2 (HT-29 cells) [2] = molecular target: T1, PAR2 (HT-29 cells); assay: Ca FLIPR TETRA assay, ANTAGONIST mode, activator 3.1 U/mL trypsin; conditions: HT-29 cells, activator 3.1 U/mL trypsin; maximal antagonist concentration per Method (A: 0.1, 1 or 2 μM; B: 50 μM)
Procedure: as §1, §2, §3

[3] = tested on: Thrombin-stimulated Ca2+ response in HT-29 cells; assay: Ca FLIPR TETRA assay, ANTAGONIST mode, activator 1 U/mL Thrombin; conditions: HT-29 cells, activator 1 U/mL Thrombin
Procedure: as §1, §2, §3

[4] = tested on: UTP-stimulated Ca2+ response in HT-29 cells; assay: Ca FLIPR TETRA assay, ANTAGONIST mode, activator 0.6 μM UTP; conditions: HT-29 cells, activator 0.6 μM UTP
Procedure: as §1, §2, §3

IC50 (PAR2 (HT-29 cells) [1]) | IC50 (PAR2 (HT-29 cells) [2]) | IC50 ([3]; Homo sapiens) | IC50 ([4]; Homo sapiens) | IC50 [3] | IC50 [4] | Structure (SMILES)
19 nM | 33 nM | 6000 nM | 7400 nM |  |  | CC(C)(O)C(=O)N1CCN(C(=O)c2cc3nc(-c4ccc(F)cc4)cc(C4(C)CC4)c3o2)C(C)(C)C1 [Example I-27]
4.2 nM | 3.5 nM | 8800 nM | 11000 nM |  |  | CC[C@@H](O)C(=O)N1CCN(C(=O)c2cc3nc(-c4ccc(F)cc4)cc(C4(C)CC4)c3o2)C(C)(C)C1 [Example I-28]
23 nM | 32 nM | 19000 nM | 16000 nM |  |  | CO[C@H](C)C(=O)N1CCN(C(=O)c2cc3nc(-c4ccc(F)cc4)cc(C4(C)CC4)c3o2)C(C)(C)C1 [Example I-29]
16 nM | 14 nM | 20000 nM | 13000 nM |  |  | CC1(c2cc(-c3ccc(F)cc3)nc3cc(C(=O)N4CCN(C(=O)[C@H]5CCCO5)CC4(C)C)oc23)CC1 [Example I-30]
17000 nM | 21000 nM | > 50000 nM | > 50000 nM |  |  | CC1(c2cc(-c3ccc(F)cc3)nc3cc(C(=O)N4CCN(C(=O)C(O)C5CC5)CC4(C)C)oc23)CC1 (centres unmarked) [Example I-31]
5.9 nM | 4.6 nM | 11000 nM | 6700 nM |  |  | CC(C)[C@@H](O)C(=O)N1CCN(C(=O)c2cc3nc(-c4ccc(F)cc4)cc(C4(C)CC4)c3o2)C(C)(C)C1 [Example I-32]
94 nM | 64 nM | 3600 nM | 5800 nM |  |  | CC1(c2cc(-c3ccc(F)cc3)nc3cc(C(=O)N4CCN(C(=O)[C@H]5CCC(=O)O5)CC4(C)C)oc23)CC1 [Example I-33]
4.6 nM | 5.9 nM | > 25000 nM | 26000 nM |  |  | CCCCC(O)C(=O)N1CCN(C(=O)c2cc3nc(-c4ccc(F)cc4)cc(C4(C)CC4)c3o2)C(C)(C)C1 (centres unmarked) [Example I-34]
34 nM | 49 nM | 14000 nM | 11000 nM |  |  | CCC(C)(O)C(=O)N1CCN(C(=O)c2cc3nc(-c4ccc(F)cc4)cc(C4(C)CC4)c3o2)C(C)(C)C1 (centres unmarked) [Example I-35]
0.97 nM | 1.5 nM | 31000 nM | > 26000 nM |  |  | CC(C)C[C@@H](O)C(=O)N1CCN(C(=O)c2cc3nc(-c4ccc(F)cc4)cc(C4(C)CC4)c3o2)C(C)(C)C1 [Example I-36]
57 nM | 67 nM | 21000 nM | 17000 nM |  |  | COCCOCC(=O)N1CCN(C(=O)c2cc3nc(-c4ccc(F)cc4)cc(C4(C)CC4)c3o2)C(C)(C)C1 [Example I-37]
3.5 nM | 3.1 nM | > 50000 nM | 39000 nM |  |  | CC(C)(C)CC(O)C(=O)N1CCN(C(=O)c2cc3nc(-c4ccc(F)cc4)cc(C4(C)CC4)c3o2)C(C)(C)C1 (centres unmarked) [Example I-38]
14 nM | 20 nM | 21000 nM | 23000 nM |  |  | CC1(c2cc(-c3ccc(F)cc3)nc3cc(C(=O)N4CCN(C(=O)C(C)(O)C(F)(F)F)CC4(C)C)oc23)CC1 (centres unmarked) [Example I-39]
5 nM | 7.3 nM | 37000 nM | 30000 nM |  |  | CC1(c2cc(-c3ccc(F)cc3)nc3cc(C(=O)N4CCN(C(=O)[C@H](O)C5CCCCC5)CC4(C)C)oc23)CC1 [Example I-40]
6.5 nM | 8.5 nM | > 50000 nM | > 50000 nM |  |  | CC1(c2cc(-c3ccc(F)cc3)nc3cc(C(=O)N4CCN(C(=O)[C@H](O)Cc5ccccc5)CC4(C)C)oc23)CC1 [Example I-41]
1.2 nM | 1.2 nM | > 50000 nM | > 50000 nM |  |  | CC1(c2cc(-c3ccc(F)cc3)nc3cc(C(=O)N4CCN(C(=O)C5CCCCC5)CC4(C)C)oc23)CC1 [Example I-42]
6.9 nM | 8.2 nM | > 50000 nM | > 50000 nM |  |  | CC1(C(=O)N2CCN(C(=O)c3cc4nc(-c5ccc(F)cc5)cc(C5(C)CC5)c4o3)C(C)(C)C2)CCCCC1 [Example I-43]
2.9 nM | 3.2 nM | > 40000 nM | 36000 nM |  |  | CCC(C)C(=O)N1CCN(C(=O)c2cc3nc(-c4ccc(F)cc4)cc(C4(C)CC4)c3o2)C(C)(C)C1 (centres unmarked) [Example I-44]

IC50 (PAR2 (HT-29 cells) [1]) | IC50 (PAR2 (HT-29 cells) [2]) | IC50 ([3]; Homo sapiens) | IC50 ([4]; Homo sapiens) | IC50 [3] | IC50 [4] | Structure (SMILES)
4 nM | 4.1 nM | 20000 nM | 4700 nM |  |  | CC1(C(=O)N2CCN(C(=O)c3cc4nc(-c5ccc(F)cc5)cc(C5(C)CC5)c4o3)C(C)(C)C2)CC1 [Example I-45]
7.9 nM | 7 nM | 4100 nM | 5300 nM |  |  | CC(C)C(=O)N1CCN(C(=O)c2cc3nc(-c4ccc(F)cc4)cc(C4(C)CC4)c3o2)C(C)(C)C1 [Example I-46]
29 nM | 78 nM | > 50000 nM | > 50000 nM |  |  | CC[C@H](C(=O)N1CCN(C(=O)c2cc3nc(-c4ccc(F)cc4)cc(C4(C)CC4)c3o2)C(C)(C)C1)c1ccccc1 [Example I-47]
5.1 nM | 5.9 nM | 16000 nM | 16000 nM |  |  | CC1(c2cc(-c3ccc(F)cc3)nc3cc(C(=O)N4CCN(C(=O)C5CCC5)CC4(C)C)oc23)CC1 [Example I-48]
5.9 nM | 12 nM | 15000 nM | 18000 nM |  |  | CC1(c2cc(-c3ccc(F)cc3)nc3cc(C(=O)N4CCN(C(=O)C5CC5)CC4(C)C)oc23)CC1 [Example I-49]
4.9 nM | 5.1 nM | > 50000 nM | > 50000 nM |  |  | CC1(c2cc(-c3ccc(F)cc3)nc3cc(C(=O)N4CCN(C(=O)C5C(C)(C)C5(C)C)CC4(C)C)oc23)CC1 [Example I-50]
5.8 nM | 5.3 nM | 24000 nM | > 50000 nM |  |  | CC1(c2cc(-c3ccc(F)cc3)nc3cc(C(=O)N4CCN(C(=O)C5(C#N)CC5)CC4(C)C)oc23)CC1 [Example I-51]
4.2 nM | 6 nM | > 50000 nM | > 50000 nM |  |  | CCC(C)(C)C(=O)N1CCN(C(=O)c2cc3nc(-c4ccc(F)cc4)cc(C4(C)CC4)c3o2)C(C)(C)C1 [Example I-52]
53 nM | 74 nM | > 50000 nM | > 50000 nM |  |  | CC1(c2cc(-c3ccc(F)cc3)nc3cc(C(=O)N4CCN(C(=O)C5(c6ccc(Cl)cc6)CC5)CC4(C)C)oc23)CC1 [Example I-53]
4.5 nM | 6.3 nM | 9600 nM | 7900 nM |  |  | CC1(c2cc(-c3ccc(F)cc3)nc3cc(C(=O)N4CCN(C(=O)C5CCOCC5)CC4(C)C)oc23)CC1 [Example I-54]
2.8 nM | 4.6 nM | 29000 nM | > 33000 nM |  |  | CC1(c2cc(-c3ccc(F)cc3)nc3cc(C(=O)N4CCN(C(=O)C5(C(F)(F)F)CC5)CC4(C)C)oc23)CC1 [Example I-55]
16 nM | 31 nM | 9000 nM | 5200 nM |  |  | CC1(c2cc(-c3ccc(F)cc3)nc3cc(C(=O)N4CCN(C(=O)C5(O)CCC5)CC4(C)C)oc23)CC1 [Example I-56]
53 nM | 77 nM | 6800 nM | 8600 nM |  |  | CC1(c2cc(-c3ccc(F)cc3)nc3cc(C(=O)N4CCN(C(=O)C5(O)CCOCC5)CC4(C)C)oc23)CC1 [Example I-57]
0.31 nM | 0.64 nM | 19000 nM | 30000 nM |  |  | CC1(c2cc(-c3ccc(F)cc3)nc3cc(C(=O)N4CCN(C(=O)C5CC(O)(C(F)(F)F)C5)CC4(C)C)oc23)CC1 (centres unmarked) [Example I-58]
21 nM | 49 nM | 15000 nM | 15000 nM |  |  | CC[C@H](O)C(=O)N1CCN(C(=O)c2cc3nc(-c4ccc(F)cc4)cc(C4(C)CC4)c3o2)C(C)(C)C1 [Example I-59]
48 nM | 67 nM |  |  | 14000 nM | 13000 nM | CC1(c2cc(-c3ccc(F)cc3)nc3cc(C(=O)N4CCN(C(=O)C5CCOC5)CC4(C)C)oc23)CC1 (centres unmarked) [Example I-60]
4.8 nM | 11 nM | 17000 nM | 13000 nM |  |  | CC[C@@H](O)C(=O)N1CCN(C(=O)c2cc3nc(-c4ccc(F)cc4)cc(C(C)C)c3o2)C(C)(C)C1 [Example I-61]
